From patent publication US8993585B2, “Cyclic amine substituted pyrimidinediamines as PKC inhibitors” (Rigel Pharmaceuticals, Inc., priority 2007, dated 2015)

Tested on: Human primary T cells
Experiment: IL-2 ELISA, Human Primary T Cell, Anti-CD3+CD28+ (Example 3)
Format: cell-based
Conditions: anti-CD3+CD28 stimulation
In short: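 Human primary T cells, 100,000 per well, were pre-incubated with compound in Yssel's medium for 1 h at 37 °C. The counter-assay used 0.5 ng/ml PMA with 0.1 uM ionomycin final.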

Structure (SMILES)	IC50 (Homo sapiens, T-cell, 24 h) [nM]	other results
CC1(C)CC(Nc2nc(Nc3ccc(F)c(-n4cnnn4)c3)ncc2F)CC(C)(C)N1 [Compound I-467]		IC50 (24 hours): 460 nM
CN1C(C)(C)CC(Nc2nc(Nc3ccc(F)c(-n4cnnn4)c3)ncc2C(N)=O)CC1(C)C [Compound I-468]		IC50 (24 hours): 2690 nM
CN1C(C)(C)CC(Nc2nc(Nc3ccc4c(c3)CCC(=O)N4)ncc2F)CC1(C)C [II-2]		IC50 (24 hours): 1400 nM
CN1C(C)(C)CC(Nc2nc(Nc3ccc4c(c3)CC(=O)NO4)ncc2F)CC1(C)C [II-3]	1850	
CN1C(=O)CCc2cc(Nc3ncc(F)c(NC4CC(C)(C)N(C)C(C)(C)C4)n3)ccc21 [II-4]	1720	
Cc1nc2ccc(Nc3ncc(F)c(NC4CC(C)(C)N(C)C(C)(C)C4)n3)cc2[nH]1 [II-9]	12300	
COC(=O)CCN1C(C)(C)CC(Nc2nc(Nc3ccc4c(c3)OCCO4)ncc2F)CC1(C)C [II-10]	7240	
CN1C(C)(C)CC(Nc2nc(Nc3nc4cc(Cl)ccc4o3)ncc2F)CC1(C)C [II-12]	4110	
CN1C(C)(C)CC(Nc2nc(Nc3nnc(C(F)(F)F)s3)ncc2F)CC1(C)C [II-13]	11200	
CN1C(C)(C)CC(Nc2nc(Nc3ncc([N+](=O)[O-])s3)ncc2F)CC1(C)C [II-14]	2570	
CN1C(C)(C)CC(Nc2nc(Nc3nc4ccccc4s3)ncc2F)CC1(C)C [II-16]	1640	
CCOc1ccc2nc(Nc3ncc(F)c(NC4CC(C)(C)N(C)C(C)(C)C4)n3)sc2c1 [II-18]	2120	
COc1cccc2sc(Nc3ncc(F)c(NC4CC(C)(C)N(C)C(C)(C)C4)n3)nc12 [II-20]	2100	
CN1C(C)(C)CC(Nc2nc(Nc3nc(C#N)c(C#N)[nH]3)ncc2F)CC1(C)C [II-22]	37300	
CN1C(C)(C)CC(Nc2nc(Nc3ccc4c(n3)NCCO4)ncc2F)CC1(C)C [II-24]	11300	
CN1C(C)(C)CC(Nc2nc(Nc3cnc4c(c3)OC(F)(F)C(=O)N4)ncc2F)CC1(C)C [II-25]	2070	
Cc1nc2cc(Nc3ncc(F)c(NC4CC(C)(C)N(C)C(C)(C)C4)n3)ccc2o1 [II-30]	11100	
CN1C(C)(C)CC(Nc2nc(Nc3ccc4c(c3)OCO4)ncc2F)CC1(C)C [II-32]		IC50 (24 hours): 864 nM
CN1C(C)(C)CC(Nc2nc(Nc3ccc4c(c3)OC(C)(C)C(=O)N4)ncc2F)CC1(C)C [II-33]		IC50 (24 hours): 407 nM
CN1C(C)(C)CC(Nc2nc(Nc3ccc4c(c3)OC(F)(F)O4)ncc2F)CC1(C)C [II-37]	1370	
CN1C(C)(C)CC(Nc2nc(Nc3ccc4cn[nH]c4c3)ncc2F)CC1(C)C [II-40]		IC50 (24 hours): 2970 nM
CN1C(C)(C)CC(Nc2nc(Nc3ccc4cnn(C)c4c3)ncc2F)CC1(C)C [II-41]	1610	
CN1C(C)(C)CC(Nc2nc(Nc3ccc4c(c3)OCCCO4)ncc2F)CC1(C)C [II-43]	1470	

Structure (SMILES)	IC50 (Homo sapiens, T-cell, 24 h) [nM]	other results
CN1CCc2cc(Nc3ncc(F)c(NC4CC(C)(C)N(C)C(C)(C)C4)n3)ccc21 [II-51]	4880	
CCN1CCc2cc(Nc3ncc(F)c(NC4CC(C)(C)N(C)C(C)(C)C4)n3)ccc21 [II-52]	5610	
CC(C)N1CCc2cc(Nc3ncc(F)c(NC4CC(C)(C)N(C)C(C)(C)C4)n3)ccc21 [II-53]	4740	
CN1C(C)(C)CC(Nc2nc(Nc3ccc4c(c3)OCCO4)ncc2C#N)CC1(C)C [II-60]		IC50 (24 hours): 717 nM
CN1C(=O)C(C)(C)S(=O)(=O)c2cc(Nc3ncc(F)c(NC4CC(C)(C)N(C)C(C)(C)C4)n3)ccc21 [II-64]		IC50 (24 hours): 849 nM
CCN1C(=O)C(C)(C)S(=O)(=O)c2cc(Nc3ncc(F)c(NC4CC(C)(C)N(C)C(C)(C)C4)n3)ccc21 [II-66]		IC50 (24 hours): 695 nM
CC(C)N1C(=O)C(C)(C)S(=O)(=O)c2cc(Nc3ncc(F)c(NC4CC(C)(C)N(C)C(C)(C)C4)n3)ccc21 [II-67]		IC50 (24 hours): 811 nM
CN1C(=O)C2(CCC2)Oc2cc(Nc3ncc(F)c(NC4CC(C)(C)N(C)C(C)(C)C4)n3)ccc21 [II-68]		IC50 (24 hours): 261 nM
CCN1C(=O)C2(CCC2)Oc2cc(Nc3ncc(F)c(NC4CC(C)(C)N(C)C(C)(C)C4)n3)ccc21 [II-69]		IC50 (24 hours): 164 nM
CCN1C(=O)C(F)(F)Oc2cc(Nc3ncc(C#N)c(NC4CC(C)(C)NC(C)(C)C4)n3)cnc21 [II-73]		IC50 (24 hours): 1180 nM
CC(C)N1C(=O)C(C)(C)Oc2cc(Nc3ncc(C#N)c(NC4CC(C)(C)NC(C)(C)C4)n3)ccc21 [II-75]		IC50 (24 hours): 476 nM
CN1C(C)(C)CC(Nc2nc(Nc3ccc4c(c3)OC(C)(C)C(=O)N4CC3CC3)ncc2F)CC1(C)C [II-76]		IC50 (24 hours): 178 nM
CN1C(C)(C)CC(Nc2nc(Nc3ccc4c(c3)OCC(=O)N4CC3CC3)ncc2F)CC1(C)C [II-77]		IC50 (24 hours): 101 nM
CN1C(C)(C)CC(Nc2nc(N[C@H]3CCc4ccccc43)ncc2F)CC1(C)C [II-83]	19600	
CN1C(C)(C)CC(Nc2nc(N[C@@H]3CCc4ccccc43)ncc2F)CC1(C)C [II-84]	17500	
CN1C(C)(C)CC(Nc2nc(Nc3ccc(NCc4ccccc4)cn3)ncc2F)CC1(C)C [II-85]	3660	
CN1C(C)(C)CC(N(Cc2ccccc2)c2nc(Nc3ccc4c(c3)OCCO4)ncc2F)CC1(C)C [II-86]		IC50 (T-cell, 24 hours): 1260 nM
CN1C(C)(C)CC(N(Cc2ccc3ccccc3c2)c2nc(Nc3ccc4c(c3)OCCO4)ncc2F)CC1(C)C [II-87]	3810	
CN1C(C)(C)CC(N(Cc2ccc(-c3ccccc3)cc2)c2nc(Nc3ccc4c(c3)OCCO4)ncc2F)CC1(C)C [II-88]	2480	
CN1C(C)(C)CC(N(Cc2ccc3ccccc3n2)c2nc(Nc3ccc4c(c3)OCCO4)ncc2F)CC1(C)C [II-89]	7670	
CN1C(C)(C)CC(N(Cc2cc3c(cc2Br)OCO3)c2nc(Nc3ccc4c(c3)OCCO4)ncc2F)CC1(C)C [II-90]	5580	
CN1C(C)(C)CC(N(Cc2ccc(-c3ccccc3C#N)cc2)c2nc(Nc3ccc4c(c3)OCCO4)ncc2F)CC1(C)C [II-91]	3860	

Further molecules by falling IC50 (Homo sapiens, T-cell, 24 h), results first:

IC50 (Homo sapiens, T-cell, 24 h) [nM]	Structure (SMILES)	other results
1320	CN1C(C)(C)CC(Nc2nc(Nc3ccc4c(c3)OCc3nccn3-4)ncc2F)CC1(C)C [II-11]	
1240	CN(C)CCN1C(=O)C(C)(C)Oc2cc(Nc3ncc(F)c(NC4CC(C)(C)N(C)C(C)(C)C4)n3)ccc21 [II-49]	
968	CN1C(C)(C)CC(Nc2nc(Nc3ccc4c(c3)n(C)c(=O)n4C)ncc2F)CC1(C)C [II-56]	
967	CN1C(C)(C)CC(Nc2nc(Nc3ccc4c(cnn4C)c3)ncc2F)CC1(C)C [II-39]	
951	CN1C(=O)C(F)(F)Oc2cc(Nc3ncc(F)c(NC4CC(C)(C)N(C)C(C)(C)C4)n3)cnc21 [II-26]	
890	Cc1cccc2sc(Nc3ncc(F)c(NC4CC(C)(C)N(C)C(C)(C)C4)n3)nc12 [II-19]	
845	CN1C(C)(C)CC(Nc2nc(Nc3nc4ccc([N+](=O)[O-])cc4s3)ncc2F)CC1(C)C [II-17]	
835	CN1C(C)(C)CC(Nc2nc(Nc3nc(-c4ccc(Cl)cc4)cs3)ncc2F)CC1(C)C [II-15]	
827	CN1C(C)(C)CC(Nc2nc(Nc3ccc4[nH]ncc4c3)ncc2F)CC1(C)C [II-38]	
678	CN1C(C)(C)CC(Nc2nc(Nc3ccc4c(c3)oc(=O)n4C)ncc2F)CC1(C)C [II-36]	
567	CN1C(C)(C)CC(Nc2nc(Nc3ccc4c(c3)OC(C)(C)C(=O)N4CCCF)ncc2C#N)CC1(C)C [II-81]	
550	CN1C(=O)C(F)(F)Oc2cc(Nc3ncc(Cl)c(NC4CC(C)(C)N(C)C(C)(C)C4)n3)ccc21 [II-28]	
391	CCn1c(=O)oc2cc(Nc3ncc(F)c(NC4CC(C)(C)N(C)C(C)(C)C4)n3)ccc21 [II-46]	
373	CN1C(=O)C(C)(C)Oc2cc(Nc3ncc(F)c(NC4CC(C)(C)N(C)C(C)(C)C4)n3)cnc21 [II-54]	
369	CN1C(C)(C)CC(Nc2nc(Nc3ccc4c(c3)OC(C)(C)C(=O)N4CCCF)ncc2F)CC1(C)C [II-78]	
349	CC(C)N1C(=O)C(C)(C)Oc2cc(Nc3ncc(C#N)c(NC4CC(C)(C)N(C)C(C)(C)C4)n3)ccc21 [II-74]	
327	CC(C)n1c(=O)oc2cc(Nc3ncc(C#N)c(NC4CC(C)(C)N(C)C(C)(C)C4)n3)ccc21 [II-70]	

IC50 (Homo sapiens, T-cell, 24 h) [nM]	Structure (SMILES)	other results
298	CC(C)N1C(=O)C(C)(C)Oc2cc(Nc3ncc(F)c(NC4CC(C)(C)N(C)C(C)(C)C4)n3)ccc21 [II-44]	
291	CN1C(C)(C)CC(Nc2nc(Nc3ccc4c(c3)OCC(=O)N4CCF)ncc2F)CC1(C)C [II-82]	
263	CCCN1C(=O)C(C)(C)Oc2cc(Nc3ncc(F)c(NC4CC(C)(C)N(C)C(C)(C)C4)n3)ccc21 [II-48]	
258	CCN1C(=O)C(C)(C)Oc2cc(Nc3ncc(F)c(NC4CC(C)(C)N(C)C(C)(C)C4)n3)cnc21 [II-55]	
255	CCN1C(=O)C(F)(F)Oc2cc(Nc3ncc(C#N)c(NC4CC(C)(C)N(C)C(C)(C)C4)n3)cnc21 [II-65]	
231	CCN1C(=O)COc2cc(Nc3ncc(F)c(NC4CC(C)(C)N(C)C(C)(C)C4)n3)ccc21 [II-58]	
229	CC(C)n1c(=O)oc2cc(Nc3ncc(F)c(NC4CC(C)(C)N(C)C(C)(C)C4)n3)ccc21 [II-47]	
199	CN1C(C)(C)CC(Nc2nc(Nc3ccc4c(c3)OC(C)(C)C(=O)N4CCF)ncc2F)CC1(C)C [II-80]	
168	CCCN1C(=O)COc2cc(Nc3ncc(C#N)c(NC4CC(C)(C)N(C)C(C)(C)C4)n3)ccc21 [II-72]	
168	CC(C)N1C(=O)COc2cc(Nc3ncc(F)c(NC4CC(C)(C)N(C)C(C)(C)C4)n3)ccc21 [II-61]	
152	CN1C(C)(C)CC(Nc2nc(Nc3ccc4c(c3)OC(C)(C)C(=O)N4CCF)ncc2C#N)CC1(C)C [II-79]	
148	CCCN1C(=O)COc2cc(Nc3ncc(F)c(NC4CC(C)(C)N(C)C(C)(C)C4)n3)ccc21 [II-59]	
147	CCN1C(=O)C(C)(C)Oc2cc(Nc3ncc(C#N)c(NC4CC(C)(C)NC(C)(C)C4)n3)ccc21 [II-57]	
145	CCN1C(=O)COc2cc(Nc3ncc(C#N)c(NC4CC(C)(C)N(C)C(C)(C)C4)n3)ccc21 [II-71]	
91.8	CCN1C(=O)C(C)(C)Oc2cc(Nc3ncc(C(F)(F)F)c(NC4CC(C)(C)N(C)C(C)(C)C4)n3)ccc21 [II-50]	
77.2	CCN1C(=O)C(C)(C)Sc2cc(Nc3ncc(F)c(NC4CC(C)(C)N(C)C(C)(C)C4)n3)ccc21 [II-63]	
38.3	CN1C(=O)C(C)(C)Sc2cc(Nc3ncc(F)c(NC4CC(C)(C)N(C)C(C)(C)C4)n3)ccc21 [II-62]	
